What was measured:
Assay type in all cases: functional
[1] = tested on: K562; assay: Cytotoxicity against human K562 cells after 72 hrs by SRB assay; conditions: K562, 72 h
[2] = tested on: A549; assay: Cytotoxicity against human A549 cells after 72 hrs by SRB assay; conditions: A549, 72 h
[3] = tested on: SK-MEL-28; assay: Cytotoxicity against human SK-MEL-28 cells after 72 hrs by SRB assay; conditions: SK-MEL-28, 72 h
[4] = tested on: HT-29; assay: Cytotoxicity against human HT29 cells after 72 hrs by SRB assay; conditions: HT-29, 72 h
[5] = tested on: LoVo; assay: Cytotoxicity against human LoVo cells after 72 hrs by SRB assay
[6] = tested on: LoVo; assay: Cytotoxicity against human doxorubicin-resistant LoVo cells after 72 hrs by SRB assay
[7] = tested on: DU-145; assay: Cytotoxicity against human DU145 cells after 72 hrs by SRB assay; conditions: DU-145, 72 h
[8] = tested on: LNCaP; assay: Cytotoxicity against human LNCAP cells after 72 hrs by SRB assay
[9] = tested on: SK-BR-3; assay: Cytotoxicity against human SK-BR-3 cells after 72 hrs by SRB assay; conditions: SK-BR-3, 72 h
[10] = tested on: SK-OV-3; assay: Cytotoxicity against human SKOV3 cells after 72 hrs by SRB assay; conditions: SK-OV-3, 72 h
[11] = Cytotoxicity against human IGROV cells after 72 hrs by SRB assay
[12] = Cytotoxicity against human IGROV-ET cells after 72 hrs by SRB assay
[13] = tested on: PANC-1; assay: Cytotoxicity against human PANC1 cells after 72 hrs by SRB assay; conditions: PANC-1, 72 h

Measured: GI50

C=C1CCC[C@@H]2[C@@](C)(CC[C@@]3(C)CCn4cnc5ncnc(c54)N3)[C@H](C)CC[C@@]12C [ASMARINE K]
5 µM: all assays above

C[C@H]1CC[C@@]23C[C@]2(C)CCC[C@@H]3[C@@]1(C)CC[C@@]1(C)CCn2cnc3ncnc(c32)N1 [ASMARINE J]
5 µM: all assays above

C[C@H]1CC[C@@]23C[C@]2(C)CCC[C@@H]3[C@@]1(C)CC[C@@]1(C)CCn2cnc3ncnc(c32)N1O [ASMARINE I]
5 µM: all assays above

Source: ChEMBL document CHEMBL1148957, “Asmarines I, J, and K and nosyberkol: four new compounds from the marine sponge Raspailia sp” (2004)
